Measurements reported in US9062046B2, “Substituted imidazoquinoline derivatives as kinase inhibitors” (Piramal Enterprises Limited, priority 2011, dated 2015).

What was measured:
[1] = system: A2780 (ovarian cell line); assay: Cytotoxicity assay (propidium iodide assay), A2780; format: cell-based; details: A2780 cells, 48 h treatment; for IC50 / inhibition at 1 µM: Homo sapiens
Summary of the method: (§1)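 A2780 and PC3 cells, 3000/well, were treated with compound for 48 h after 18-24 h attachment. After washing, propidium iodide 7 μg/ml was added, followed by freeze-thaw at −70 °C and a fluorescence read. Viability was taken relative to untreated wells, with IC50 derived from the curves.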

[2] = target: T1, p110α (Homo sapiens, UniProt P42336); assay: p110α radioactive lipid kinase assay (PI3Kα); format: biochemical; details: 25 μM ATP, 2 h at RT, read-out: IC50 in μM (PI3 kinase activity)
T1 construct: purchased Upstate Millipore
Method: Protocol for Kinase Assay (PI3Kα)
p110α Radioactive Lipid Kinase Assay
The assay was designed as in the reference, Journal of Biomolecular Screening, 2002, Vol. 7, No. 5, 441-450, the disclosure of which is incorporated by reference for the teaching of the assay.
The p110α biochemical assay was performed using a radioactive assay measuring the incorporation of ^32P into the p110α substrate, phosphatidylinsoitol (PI). For the generation of IC50 curves, the reaction was performed in a 96-well MaxiSorp plates. Plates were pre-coated with 4 μg/well of a 1:1 ratio of phosphatidylinositol (PI: Avanti #840042C) and phosphatidylserine (PS: Avanti #840032C) diluted in CHCl3. Equal amount of p110α (Upstate Millipore) protein was added to each well, containing reaction buffer (50 mM MOPSO pH7.0, 100 mM NaCl, 4 mM MgCl2, 0.1% (w/v) BSA) whereas, for negative control, only reaction buffer was added. Test compounds (referred to by example nos. in the following table 1) dissolved in DMSO were treated at nine-point dose responses. Reactions were initiated by the addition of 25 μM ATP solution containing 50 μCi/ml [γ-^32P]-ATP and incubated at RT for 2 h with gentle shaking. Reactions were finally terminated by the addition of 50 mM EDTA stock solution. Plates were washed 3 times with TBS buffer. The plates were air dried, Microscint 0 (Perkin Elmer) was added to each well and the plates were sealed. The radioactivity incorporated into the immobilized PI substrate was determined with Top Count (Perkin Elmer). Inhibition was calculated using the following equation: % inhibition=(Dcpm−Tcpm)/(Dcpm)×100 • Tcpm=^32P-cpm in presence of test compounds • Dcpm=^32P-cpm in DMSO control (enzyme control deducted) Results: IC50 values of test compounds for PI3 kinase activity is indicated in Table 1.

[3] = system: PC3 (prostate cell line); assay: Cytotoxicity assay (propidium iodide assay), PC3; format: cell-based; details: PC3 cells, 48 h treatment; for IC50 / inhibition at 1 µM: Homo sapiens, PC-3
Summary of the method: as §1

T1 sequence (P42336 whole entry, species assumed): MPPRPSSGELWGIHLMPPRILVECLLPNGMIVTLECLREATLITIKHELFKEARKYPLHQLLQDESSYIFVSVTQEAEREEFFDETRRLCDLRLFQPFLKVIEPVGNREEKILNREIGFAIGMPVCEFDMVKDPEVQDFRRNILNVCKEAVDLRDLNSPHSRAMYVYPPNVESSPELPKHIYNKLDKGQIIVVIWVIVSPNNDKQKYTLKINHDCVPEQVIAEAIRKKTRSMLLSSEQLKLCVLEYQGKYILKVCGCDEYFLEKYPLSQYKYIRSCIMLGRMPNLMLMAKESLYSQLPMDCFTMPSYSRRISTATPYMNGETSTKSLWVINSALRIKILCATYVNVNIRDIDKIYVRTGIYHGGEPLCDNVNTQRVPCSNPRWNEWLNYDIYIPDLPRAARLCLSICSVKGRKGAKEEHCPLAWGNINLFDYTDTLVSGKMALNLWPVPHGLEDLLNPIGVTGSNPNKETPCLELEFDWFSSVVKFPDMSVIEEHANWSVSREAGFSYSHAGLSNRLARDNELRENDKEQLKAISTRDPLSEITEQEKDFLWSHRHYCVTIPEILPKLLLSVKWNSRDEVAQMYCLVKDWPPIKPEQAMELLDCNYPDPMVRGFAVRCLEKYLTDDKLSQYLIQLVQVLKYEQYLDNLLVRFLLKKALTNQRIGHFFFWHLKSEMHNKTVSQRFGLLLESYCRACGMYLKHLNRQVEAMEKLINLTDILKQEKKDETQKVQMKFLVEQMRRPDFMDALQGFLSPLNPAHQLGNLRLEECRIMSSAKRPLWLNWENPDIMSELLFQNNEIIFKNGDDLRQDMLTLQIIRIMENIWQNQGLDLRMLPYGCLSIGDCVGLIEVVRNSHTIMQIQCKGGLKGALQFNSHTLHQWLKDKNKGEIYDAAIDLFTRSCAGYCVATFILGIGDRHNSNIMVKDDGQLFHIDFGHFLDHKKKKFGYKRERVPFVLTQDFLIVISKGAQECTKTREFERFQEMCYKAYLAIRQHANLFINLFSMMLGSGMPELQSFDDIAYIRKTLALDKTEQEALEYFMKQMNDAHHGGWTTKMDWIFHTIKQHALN
T1 sequence (P27986 whole entry partner, species assumed): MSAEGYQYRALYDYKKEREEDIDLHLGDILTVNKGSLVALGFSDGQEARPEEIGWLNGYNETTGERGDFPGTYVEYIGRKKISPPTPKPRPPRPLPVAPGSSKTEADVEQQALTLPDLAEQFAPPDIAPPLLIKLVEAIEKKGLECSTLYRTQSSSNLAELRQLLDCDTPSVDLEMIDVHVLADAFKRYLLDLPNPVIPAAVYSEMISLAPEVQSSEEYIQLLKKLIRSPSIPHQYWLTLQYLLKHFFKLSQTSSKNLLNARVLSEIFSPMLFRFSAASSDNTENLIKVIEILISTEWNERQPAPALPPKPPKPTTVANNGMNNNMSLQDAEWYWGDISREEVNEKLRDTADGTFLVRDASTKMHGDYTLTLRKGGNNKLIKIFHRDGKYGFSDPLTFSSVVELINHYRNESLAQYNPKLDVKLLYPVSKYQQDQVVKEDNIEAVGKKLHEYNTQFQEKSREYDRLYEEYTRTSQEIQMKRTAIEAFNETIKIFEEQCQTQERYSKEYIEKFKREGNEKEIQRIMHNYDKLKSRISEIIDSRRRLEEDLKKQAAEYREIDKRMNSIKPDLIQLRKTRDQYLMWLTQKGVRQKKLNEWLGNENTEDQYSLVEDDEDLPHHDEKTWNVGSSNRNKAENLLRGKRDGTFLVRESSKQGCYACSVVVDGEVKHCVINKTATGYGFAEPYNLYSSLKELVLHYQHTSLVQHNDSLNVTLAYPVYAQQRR

Molecule | IC50 [1] | IC50 [3] | inhibition at 1 µM [1] | inhibition at 1 µM [3] | further results
Cn1c(=NC#N)n(-c2ccc(C(C)(C)C#N)nc2)c2c3cc(-c4cnc(N)c(C(F)(F)F)c4)ccc3ncc21 [Example 5, N-(8-(6-amino-5-(trifluoromethyl)pyridin-3-yl)-1-(6-(2-cyanopropan-2-yl)pyridin-3-yl)-3-methyl-1H-imidazo[4,5-c]quinolin-2(3H)-ylidene)cyanamide] | ≤ 0.5 µM | ≤ 0.5 µM | – | – | IC50 [2]: ≤ 0.01 µM
Cn1c(=NC#N)n(-c2ccc(C(C)(C)C#N)nc2)c2c3cc(-c4cncc(C(F)(F)F)c4)ccc3ncc21 [Example 70] | ≤ 0.5 µM | ≤ 0.5 µM | – | – | IC50 [2]: ≤ 0.01 µM
Cn1c(=NC#N)n(-c2ccc(C(C)(C)C#N)nc2)c2c3cc(-c4ccc5[nH]ccc5c4)ccc3ncc21 [Example 73, N-(1-(6-(2-cyanopropan-2-yl)pyridin-3-yl)-8-(1H-indol-5-yl)-3-methyl-1H-imidazo[4,5-c]quinolin-2(3H)-ylidene)cyanamide] | ≤ 0.5 µM | ≤ 0.5 µM | – | – | IC50 [2]: ≤ 0.01 µM
Cn1c(=NC#N)n(-c2ccc(OC(F)(F)F)cc2)c2c3cc(-c4cccnc4)ccc3ncc21 [Example 108, N-(3-methyl-8-(pyridin-3-yl)-1-(4-(trifluoromethoxy)phenyl)-1H-imidazo[4,5-c]quinolin-2(3H)-ylidene)cyanamide] | ≤ 0.5 µM | 0.5 to 2 µM | – | – | –
Cn1c(=NC#N)n(-c2ccc(OC(F)(F)F)cc2)c2c3cc(-c4ccncc4)ccc3ncc21 [Example 109, N-(3-methyl-8-(pyridin-4-yl)-1-(4-(trifluoromethoxy)phenyl)-1H-imidazo[4,5-c]quinolin-2(3H)-ylidene)cyanamide] | ≤ 0.5 µM | 0.5 to 2 µM | – | – | –
Cc1cc(-c2ccc3ncc4c(c3c2)n(-c2ccc(C(C)(C)C#N)nc2)c(=NC#N)n4C)cnc1N1CCN(C(=O)OC(C)(C)C)CC1 [Example 119, tert-butyl 4-(5-(2-(cyanoimino)-1-(6-(2-cyanopropan-2-yl)pyridin-3-yl)-3-methyl-2,3-dihydro-1H-imidazo[4,5-c]quinolin-8-yl)-3-methylpyridin-2-yl)piperazine-1-carboxylate] | – | – | ≥ 70% | ≥ 70% | –
Cn1c(=NC#N)n(-c2ccc(C(C)(C)C#N)nc2)c2c3cc(-c4ccnc(N5CCOCC5)c4Cl)ccc3ncc21 [Example 121, N-(8-(3-chloro-2-morpholinopyridin-4-yl)-1-(6-(2-cyanopropan-2-yl)pyridin-3-yl)-3-methyl-1H-imidazo[4,5-c]quinolin-2(3H)-ylidene)cyanamide] | – | – | < 30% | < 30% | –
Cn1c(=NC#N)n(-c2ccc(C(C)(C)C#N)nc2)c2c3cc(-c4cnc(NC(=O)OC(C)(C)C)c(C(F)(F)F)c4)ccc3ncc21 [Example 122, tert-butyl 5-(2-(cyanoimino)-1-(6-(2-cyanopropan-2-yl)pyridin-3-yl)-3-methyl-2,3-dihydro-1H-imidazo[4,5-c]quinolin-8-yl)-3-(trifluoromethyl)pyridin-2-ylcarbamate] | – | – | ≥ 70% | 30 to 70% | –
COc1ccc(-n2c(=NC#N)n(C)c3cnc4ccc(-c5cnc(NC(=O)OC(C)(C)C)c(C(F)(F)F)c5)cc4c32)cn1 [Example 123, tert-butyl 5-(2-(cyanoimino)-1-(6-methoxypyridin-3-yl)-3-methyl-2,3-dihydro-1H-imidazo[4,5-c]quinolin-8-yl)-3-(trifluoromethyl)pyridin-2-ylcarbamate] | ≤ 0.5 µM | ≤ 0.5 µM | – | – | –
COc1ncc(-c2ccc3ncc4c(c3c2)n(-c2ccc(C(C)(C)C#N)cc2)c(=NC#N)n4C)cc1NS(=O)(=O)c1ccccc1 [Example 124, N-(5-(2-(cyanoimino)-1-(4-(2-cyanopropan-2-yl)phenyl)-3-methyl-2,3-dihydro-1H-imidazo[4,5-c]quinolin-8-yl)-2-methoxypyridin-3-yl)benzenesulfonamide] | – | – | ≥ 70% | ≥ 70% | –
COc1ncc(-c2ccc3ncc4c(c3c2)n(-c2ccc(C(C)(C)C#N)nc2)c(=NC#N)n4C)cc1NS(C)(=O)=O [Example 126, N-(5-(2-(cyanoimino)-1-(6-(2-cyanopropan-2-yl)pyridin-3-yl)-3-methyl-2,3-dihydro-1H-imidazo[4,5-c]quinolin-8-yl)-2-methoxypyridin-3-yl)methane sulfonamide] | ≤ 0.5 µM | ≤ 0.5 µM | – | – | –
COc1ncc(-c2ccc3ncc4c(c3c2)n(-c2ccc(C(C)(C)C#N)cc2)c(=NC#N)n4C)cc1NS(C)(=O)=O [Example 127, N-(5-(2-(cyanoimino)-1-(4-(2-cyanopropan-2-yl)phenyl)-3-methyl-2,3-dihydro-1H-imidazo[4,5-c]quinolin-8-yl)-2-methoxypyridin-3-yl)methanesulfonamide] | – | – | ≥ 70% | 30 to 70% | –
CC(=O)Nc1cc(C)c(-c2ccc3ncc4c(c3c2)n(-c2ccc(C(C)(C)C#N)nc2)c(=NC#N)n4C)cn1 [Example 128, N-(5-(2-(cyanoimino)-1-(6-(2-cyanopropan-2-yl)pyridin-3-yl)-3-methyl-2,3-dihydro-1H-imidazo[4,5-c]quinolin-8-yl)-4-methylpyridin-2-yl)acetamide] | – | – | 30 to 70% | < 30% | –
CN(C)c1ncc(-c2ccc3ncc4c(c3c2)n(-c2ccc(C(C)(C)C#N)cc2)c(=NC#N)n4C)cc1C(F)(F)F [Example 129, N-(1-(4-(2-cyanopropan-2-yl)phenyl)-8-(6-(dimethylamino)-5-(trifluoromethyl)pyridin-3-yl)-3-methyl-1H-imidazo[4,5-c]quinolin-2(3H)-ylidene) cyanamide] | – | – | – | – | % Inhibition at 1 μM, A2780 [1]: +++ (≧70%); % Inhibition at 1 μM, PC3 [3]: ++ (≧30% upto 70%)
CC(=O)N(C(C)=O)c1ncc(-c2ccc3ncc4c(c3c2)n(-c2ccc(C(C)(C)C#N)cc2)c(=NC#N)n4C)cc1C(F)(F)F [Example 131, N-acetyl-N-(5-(2-(cyanoimino)-1-(4-(2-cyanopropan-2-yl)phenyl)-3-methyl-2,3-dihydro-1H-imidazo[4,5-c]quinolin-8-yl)-3-(trifluoromethyl)pyridin-2-yl)acetamide] | – | – | 30 to 70% | 30 to 70% | –
CC(=O)N(C(C)=O)c1ncc(-c2ccc3ncc4c(c3c2)n(-c2ccc(C(C)(C)C#N)nc2)c(=NC#N)n4C)cc1C(F)(F)F [Example 132, N-acetyl-N-(5-(2-(cyanoimino)-1-(6-(2-cyanopropan-2-yl)pyridin-3-yl)-3-methyl-2,3-dihydro-1H-imidazo[4,5-c]quinolin-8-yl)-3-(trifluoromethyl)pyridin-2-yl)acetamide] | – | – | < 30% | < 30% | –
COc1ncc(-c2ccc3ncc4c(c3c2)n(-c2ccc(C(C)(C)C#N)cc2)c(=NC#N)n4C)cc1NS(=O)(=O)c1ccc(F)cc1F [Example 135, N-(5-(2-(cyanoimino)-1-(4-(2-cyanopropan-2-yl)phenyl)-3-methyl-2,3-dihydro-1H-imidazo[4,5-c]quinolin-8-yl)-2-methoxypyridin-3-yl)-2,4-difluorobenzenesulfonamide] | – | – | ≥ 70% | ≥ 70% | –
CCCC(CCC)C(=O)Nc1ncc(-c2ccc3ncc4c(c3c2)n(-c2ccc(C(C)(C)C#N)nc2)c(=NC#N)n4C)cc1C(F)(F)F [Example 136, N-(5-(2-(cyanoimino)-1-(6-(2-cyanopropan-2-yl)pyridin-3-yl)-3-methyl-2,3-dihydro-1H-imidazo[4,5-c]quinolin-8-yl)-3-(trifluoromethyl)pyridin-2-yl)-2-propylpentanamide] | – | – | ≥ 70% | 30 to 70% | –
COC(=O)c1cc(-c2ccc3ncc4c(c3c2)n(-c2ccc(C(C)(C)C#N)nc2)c(=NC#N)n4C)cnc1N [Example 137, Methyl 2-amino-5-(2-(cyanoimino)-1-(6-(2-cyanopropan-2-yl)pyridin-3-yl)-3-methyl-2,3-dihydro-1H-imidazo[4,5-c]quinolin-8-yl)nicotinate] | ≤ 0.5 µM | ≤ 0.5 µM | – | – | –
Cn1c(=NC#N)n(-c2ccc(C(C)(C)C#N)nc2)c2c3cc(-c4cnc(NCc5ccccc5)c(C(F)(F)F)c4)ccc3ncc21 [Example 138, N-(8-(6-(benzylamino)-5-(trifluoromethyl)pyridin-3-yl)-1-(6-(2-cyanopropan-2-yl)pyridin-3-yl)-3-methyl-1H-imidazo[4,5-c]quinolin-2(3H)-ylidene)cyanamide] | ≤ 0.5 µM | ≤ 0.5 µM | – | – | –
N-(1-(6-methoxypyridin-3-yl)-3-methyl-8-(4-(trifluoromethyl)phenyl)-1H-imidazo[4,5-c]quinolin-2(3H)-ylidene)cyanamide [Example 43] | – | – | – | – | % Inhibition at 1 μM, A2780 [1]: + (<30%); % Inhibition at 1 μM, PC3 [3]: + (<30%)
